These results are taken from patent publication US20230043863A1, “HETEROAROMATIC DERIVATIVES FOR USE AS REGULATOR, PREPARATION METHOD THEREFOR AND USE THEREOF” (JIANGSU HANSOH PHARMACEUTICAL GROUP CO., LTD., priority 2018, published 2023).

Data set [1] is described as follows: Balb/C mouse pharmacokinetics (plasma, colon, ileum). To be noted: male, po, Balb/C mice, p.o. 5 mg/kg; for Cmax: read-out: Blood concentration Cmax; for AUC(0-t): read-out: Curve area AUC0-t; for AUC(0-inf): read-out: Curve area AUC0-∞; for half-life: read-out: Half life period t1/2 (converted); for MRT: read-out: Mean detention time MRT; for Tmax: read-out: Time to peak tmax. The format is in vivo. The procedure, abridged: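 Male Balb/C mice (12 per group), fasted overnight, given 5 mg/kg p.o.; plasma, ileum and colon sampled at 0–7 h. Drug levels by LC/MS/MS, […]; parameters include colon/ileum and colon/plasma concentration ratios.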

The next data set concerns the target JAK2 (Homo sapiens, UniProt O60674). The data set can be described thus: JAK kinase activity inhibition, TR-FRET (JAK2). The format is biochemical. To be noted: TR-FRET kinase assay. In a few lines: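 Steps: compound dilutions added; JAK kinase (0.1-20 nM) in HEPES/MgCl2 buffer added; peptide substrate and ATP mix started the reaction, 0.5-5 h at room temperature; EDTA and labeled antibody added, 1-24 h further. IC50 derived from 620/665 nm signals by four-parameter nonlinear fitting.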

Like-named read-outs stand apart in the source and are kept apart here.

As a reminder, the MRT is the average time that molecules of a dose stay in the body. Usually Tmax stands for the time at which the peak concentration occurs. The term IC50 denotes the concentration needed to halve the response being measured.

Sequence of JAK2 (O60674 whole entry): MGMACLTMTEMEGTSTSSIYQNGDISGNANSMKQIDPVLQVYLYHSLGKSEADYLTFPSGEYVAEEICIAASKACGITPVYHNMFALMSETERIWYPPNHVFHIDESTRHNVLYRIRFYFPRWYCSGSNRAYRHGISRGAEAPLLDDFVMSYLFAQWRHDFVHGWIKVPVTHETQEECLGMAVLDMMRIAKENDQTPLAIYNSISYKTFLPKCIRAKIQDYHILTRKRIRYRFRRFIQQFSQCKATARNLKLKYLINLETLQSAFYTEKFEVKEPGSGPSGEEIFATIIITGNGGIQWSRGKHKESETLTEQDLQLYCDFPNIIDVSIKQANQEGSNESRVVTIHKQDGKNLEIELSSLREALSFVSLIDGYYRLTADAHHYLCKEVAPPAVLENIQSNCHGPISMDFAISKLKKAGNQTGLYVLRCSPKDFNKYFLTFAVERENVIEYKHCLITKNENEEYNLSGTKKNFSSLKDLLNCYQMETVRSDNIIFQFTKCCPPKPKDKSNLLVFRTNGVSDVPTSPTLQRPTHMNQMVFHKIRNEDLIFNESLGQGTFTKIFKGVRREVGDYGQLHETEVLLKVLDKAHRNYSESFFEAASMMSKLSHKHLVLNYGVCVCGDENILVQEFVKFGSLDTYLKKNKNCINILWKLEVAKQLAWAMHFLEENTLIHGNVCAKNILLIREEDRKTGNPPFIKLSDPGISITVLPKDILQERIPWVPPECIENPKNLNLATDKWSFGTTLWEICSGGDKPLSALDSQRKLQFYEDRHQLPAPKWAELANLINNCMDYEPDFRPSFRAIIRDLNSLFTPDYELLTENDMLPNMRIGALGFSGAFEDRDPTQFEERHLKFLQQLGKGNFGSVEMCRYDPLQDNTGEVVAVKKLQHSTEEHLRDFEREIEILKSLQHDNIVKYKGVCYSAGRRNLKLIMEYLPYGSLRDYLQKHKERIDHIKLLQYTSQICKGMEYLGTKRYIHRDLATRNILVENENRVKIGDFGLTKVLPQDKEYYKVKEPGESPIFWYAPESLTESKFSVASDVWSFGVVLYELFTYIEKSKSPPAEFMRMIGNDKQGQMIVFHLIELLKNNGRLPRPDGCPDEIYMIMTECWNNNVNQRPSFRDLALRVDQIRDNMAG

On to `Cc1cc(Nc2nc(N[C@@H]3C[C@H]4CC[C@@H](C3)N4CCC#N)nc3sc(C)cc23)n[nH]1` [Embodiment 277, 3-((3-exo)-3-((6-methyl-4-((5-methyl-1H-pyrazol-3-yl)amino)thieno[2,3-d]pyrimidin-2-yl)amino)-8-azabicyclo[3.2.1]oct-8-yl)propionitrile], for which, in data set [1] (plasma, blood), the Cmax turned out to be 12 ng/mL, the AUC(0-t) came out at 29.1 ng·h/mL, the AUC(0-inf) turned out to be 31.1 ng·h/mL and the half-life was 0.96 h. Moreover, in data set [1] (plasma, blood), the MRT is 2.53 h and the time to peak (Tmax) stood at 2 h. Besides, in data set [1] (colon), the Cmax turned out to be 649 ng/mL, the AUC(0-t) stood at 2890 ng·h/mL, the MRT amounted to 3.89 h and the Tmax stood at 7 h. In data set [1] (ileum), the Cmax was determined as 18700 ng/mL, the AUC(0-t) is 43000 ng·h/mL, the AUC(0-inf) is 43300 ng·h/mL and the half-life was 0.92 h. Besides, in data set [1] (ileum), the MRT turned out to be 1.77 h and the Tmax is 1 h. Further, at JAK2, the IC50 came out at 1.01 nM.
Turning to `Cc1cc(Nc2nc(N[C@@H]3C[C@H]4CCC[C@@H](C3)N4CCC#N)nc3scnc23)n[nH]1` [Embodiment 278, 3-((3-exo)-3-((7-((5-methyl-1H-pyrazol-3-yl)amino)thiazolo[5,4-d]pyrimidin-5-yl)amino)-9-azabicyclo[3.3.1]non-9-yl)propionitrile], in data set [1] (plasma, blood), the Cmax was 1.79 ng/mL, the AUC(0-t) worked out at 3.62 ng·h/mL, the MRT amounted to 1.5 h and the Tmax was 0.5 h. Also, in data set [1] (colon), the Cmax worked out at 1300 ng/mL, the AUC(0-t) was 4640 ng·h/mL, the MRT stood at 4.26 h and the Tmax was 5 h. Besides, in data set [1] (ileum), the Cmax was found to be 3700 ng/mL, the AUC(0-t) turned out to be 6240 ng·h/mL, the AUC(0-inf) is 6260 ng·h/mL and the half-life is 0.95 h. In data set [1] (ileum), the MRT was 1.28 h and the Tmax was 1 h. Moreover, at JAK2, the IC50 was found to be 1.34 nM.
